Blank lines part the entries; values can stand above or below the molecule they belong to.
Assays:
[1] = Dark toxicity in human BxPC3 cells assessed as inhibition of cell growth at 6.25 to 25 uM incubated for 24 hrs by MTT assay; format: cell-based, BXPC-3; settings: read-out: GI
BXPC-3 [2] = test: Phototoxicity in human BxPC3 cells assessed as inhibition of cell growth at 6.25 uM pre-incubated for 3 hrs before irradiation with 780 nm light for 1 mins and measured after 24 hrs by MTT assay; format: functional; settings: BXPC-3, light or radiation study, read-out: GI
BXPC-3 [3] = test: Phototoxicity in human BxPC3 cells assessed as inhibition of cell growth at 12.5 uM pre-incubated for 3 hrs before irradiation with 780 nm light for 1 mins and measured after 24 hrs by MTT assay; format: functional; settings: BXPC-3, light or radiation study, read-out: GI
BXPC-3 [4] = test: Phototoxicity in human BxPC3 cells assessed as inhibition of cell growth at 25 uM pre-incubated for 3 hrs before irradiation with 780 nm light for 1 mins and measured after 24 hrs by MTT assay; format: functional; settings: BXPC-3, light or radiation study, read-out: GI
[5] = Dark toxicity in human MIAPaCa2 cells assessed as inhibition of cell growth at 6.25 to 25 uM incubated for 24 hrs by MTT assay; format: cell-based, MIA PaCa-2; settings: read-out: GI
MIA PaCa-2 [6] = test: Phototoxicity in human MIAPaCa2 cells assessed as inhibition of cell growth at 6.25 uM pre-incubated for 3 hrs before irradiation with 780 nm light for 1 mins and measured after 24 hrs by MTT assay; format: functional; settings: MIA PaCa-2, light or radiation study, read-out: GI
MIA PaCa-2 [7] = test: Phototoxicity in human MIAPaCa2 cells assessed as inhibition of cell growth at 12.5 uM pre-incubated for 3 hrs before irradiation with 780 nm light for 1 mins and measured after 24 hrs by MTT assay; format: functional; settings: MIA PaCa-2, light or radiation study, read-out: GI
MIA PaCa-2 [8] = test: Phototoxicity in human MIAPaCa2 cells assessed as inhibition of cell growth at 25 uM pre-incubated for 3 hrs before irradiation with 780 nm light for 1 mins and measured after 24 hrs by MTT assay; format: functional; settings: MIA PaCa-2, light or radiation study, read-out: GI
[9] = Dark toxicity in human LoVo cells assessed as reduction in cell viability after 72 hrs by MTT assay; format: cell-based
LoVo = test: Phototoxicity in human LoVo cells assessed as cell viability at 2 to 8 umol/L pre-incubated for 30 mins before irradiation at 365 nm at 3.75 J/cm2 and measured after 72 hrs by MTT assay; format: functional; settings: light or radiation study
[10] = Dark toxicity in human Jurkat cells assessed as reduction in cell viability after 72 hrs by MTT assay; format: cell-based
Jurkat = test: Phototoxicity in human Jurkat cells assessed as cell viability at 2 to 8 umol/L pre-incubated for 30 mins before irradiation at 365 nm at 3.75 J/cm2 and measured after 72 hrs by MTT assay; format: functional; settings: light or radiation study
[11] = Dark toxicity in human K562 cells assessed as reduction in cell viability after 72 hrs by MTT assay; format: cell-based
K562 = test: Phototoxicity in human K562 cells assessed as cell viability at 2 to 8 umol/L pre-incubated for 30 mins before irradiation at 365 nm at 3.75 J/cm2 and measured after 72 hrs by MTT assay; format: functional; settings: K562, light or radiation study
[12] = Dark toxicity in human A431 cells assessed as reduction in cell viability after 72 hrs by MTT assay; format: cell-based, A-431
A-431 = test: Phototoxicity in human A431 cells assessed as cell viability at 2 to 8 umol/L pre-incubated for 30 mins before irradiation at 365 nm at 3.75 J/cm2 and measured after 72 hrs by MTT assay; format: functional; settings: A-431, light or radiation study
[13] = Dark toxicity in human […] cells assessed as cell viability at 10 ug/ml by CCK8 assay; format: cell-based; settings: read-out: Activity
[14] = Phototoxicity in human […] cells assessed as cell viability at 10 ug/ml under irradiation at 457 nm at 20 J/cm2 by CCK8 assay; format: functional; settings: light or radiation study, read-out: Activity
[15] = Lipophilicity, log P of the compound; format: physicochemical; settings: octanol/water
[16] = Dark toxicity in mouse DLA cells assessed as inhibition of cell viability by trypan blue dye exclusion method; format: cell-based; settings: read-out: INH
[17] = Phototoxicity in mouse DLA cells assessed as inhibition of cell viability illuminated for 10 mins at total dose of 46 J/cm2 irradiation by trypan blue dye exclusion method; format: functional
[18] = Dark toxicity in human […] cells assessed as cell viability at 50 ug/ml by CCK8 assay; format: cell-based; settings: read-out: Activity
[19] = Phototoxicity in human […] cells assessed as cell viability at 5 ug/ml under irradiation at 532 nm by CCK8 assay; format: functional; settings: light or radiation study, read-out: Activity

Compound: CC1(C)C(/C=C/C2=C(Cl)C(=C/C=C3/N(CCCCS(=O)(=O)O)c4cc(I)cc(I)c4C3(C)C)/CCC2)=[N+](CCCCS(=O)(=O)O)c2cc(I)cc(I)c21
inhibition at 24 h, up to 25 µM [1]: 0%
inhibition of growth at 6.25 µM (BXPC-3 [2]): > 10%
inhibition of growth at 12.5 µM (BXPC-3 [3]): > 20%
inhibition of growth at 25 µM (BXPC-3 [4]): 40%
inhibition at 24 h, up to 25 µM [5]: 0%
inhibition of growth at 6.25 µM (MIA PaCa-2 [6]): 20%
inhibition of growth at 12.5 µM (MIA PaCa-2 [7]): > 40%
inhibition of growth at 25 µM (MIA PaCa-2 [8]): 70%

Compound: Cn1ccc2c1-c1[nH]c(=O)ncc1CC2
GI50 at 72 h [9]: > 20 µM
GI50 (LoVo): > 20 µM
GI50 at 72 h [10]: > 20 µM
GI50 (Jurkat): > 20 µM
GI50 at 72 h [11]: > 20 µM
GI50 (K562): > 20 µM
GI50 at 72 h [12]: > 20 µM
GI50 (A-431): > 20 µM

logP [15]: 2.32 to 3.04
Compound: CCN(CC)c1ccc(/C=C2\CC/C(=C\c3ccc(N(CCOCCOCCOCCOC)CCOCCOCCOCCOC)cc3)C2=O)cc1
viability at 10 ug/ml [13]: > 80%
viability at 10 µg/mL [14]: 10%

Compound: CC1(C)C(/C=C/C2=C(Cl)C(=C/C=C3/N(CCCCS(=O)(=O)O)c4ccc(I)cc4C3(C)C)/CCC2)=[N+](CCCCS(=O)(=O)O)c2ccc(I)cc21
inhibition at 24 h, up to 25 µM [1]: 0%
inhibition of growth at 6.25 µM (BXPC-3 [2]): > 10%
inhibition of growth at 12.5 µM (BXPC-3 [3]): > 20%
inhibition of growth at 25 µM (BXPC-3 [4]): 40%
inhibition at 24 h, up to 25 µM [5]: 0%
inhibition of growth at 6.25 µM (MIA PaCa-2 [6]): 30%
inhibition of growth at 12.5 µM (MIA PaCa-2 [7]): > 60%
inhibition of growth at 25 µM (MIA PaCa-2 [8]): > 80%

Compound: CCOC(=O)c1cc2c(n1Cc1ccc(C)cc1)-c1nc(N)ncc1CC2
GI50 at 72 h [9]: > 20 µM
GI50 (LoVo): 0.34 µM
GI50 at 72 h [10]: > 20 µM
GI50 (Jurkat): 0.23 µM
GI50 at 72 h [11]: > 20 µM
GI50 (K562): 0.41 µM
GI50 at 72 h [12]: > 20 µM
GI50 (A-431): 0.26 µM

Compound: CCN1/C(=C\C2=C([O-])C(=C\c3sc4cc(I)ccc4[n+]3CCCCS(=O)(=O)O)/C2=O)Sc2ccccc21
cytotoxicity [16]: < 10%
inhibition (INH) [17]: 95 - 100%

Compound: O=C(O)CCN(CCC(=O)O)c1ccc(/C=C2\CC/C(=C\c3ccc(N(CCC(=O)O)CCC(=O)O)cc3)C2=O)cc1
viability at 50 ug/ml [18]: > 70%
viability at 5 µg/mL [19]: > 80%

Compound: CCN(CC)c1ccc(/C=C2\CC/C(=C\c3ccc(N(C)CCC(=O)O)cc3)C2=O)cc1
viability at 50 ug/ml [18]: < 30%
viability at 5 µg/mL [19]: < 10%

Compound: O=C1C(/C=C2/Sc3cc(I)ccc3N2CCCCS(=O)(=O)O)=C([O-])C/1=C\c1sc2cc(I)ccc2[n+]1CCCCS(=O)(=O)O
cytotoxicity [16]: < 10%
inhibition (INH) [17]: 95 - 100%

logP [15]: 2.32 to 3.04
Compound: COCCOCCOCCN(CCOCCOCCOC)c1ccc(/C=C2\CC/C(=C\c3ccc(N(CCOCCOCCOC)CCOCCOCCOC)cc3)C2=O)cc1
viability at 10 ug/ml [13]: > 80%
viability at 10 µg/mL [14]: 60%

Compound: CC(C)c1ccc(C2=C([O-])/C(=C\c3sc4cc(I)ccc4[n+]3CCCCS(=O)(=O)O)C2=O)cc1
cytotoxicity [16]: < 10%
inhibition (INH) [17]: 80%

Compound: CCN(CC)c1ccc(/C=C2\CC/C(=C\c3ccc(N(CCC(=O)O)CCC(=O)O)cc3)C2=O)cc1
viability at 50 ug/ml [18]: > 70%
viability at 5 µg/mL [19]: > 80%

Reference: ChEMBL document CHEMBL4270506, “Recent advances in drug discovery of phototherapeutic non-porphyrinic anticancer agents” (Eur J Med Chem, 2017)
